Data published in patent US20080234233A1, “MEDICAMENT FOR TREATMENT OF NEURODEGENERATIVE DISEASES” (INSTITUTE OF MEDICINAL MOLECULAR DESIGN INC., priority 2002, published 2008).

Tested on: NF-κ B activation
Test: Inhibitory activity of NF-κB activation, luciferase reporter assay under TNF-α stimulation in HepG2
Assay type: cell-based, human
Settings: HepG2, TNF-α 40 ng/ml, 4 hours; for inhibition at 1 µg/mL / inhibition at 10 µg/mL: Homo sapiens, read-out: Inhibitory rate against NF-κB activation (%)
Method: Measurement of Inhibitory Activity of NF-κB activation
Using a transfection reagent (Effectene; QIAGEN), the human hepatoma cell strain HepG2 was transfected with a plasmid (pNF κ B-Luc Reporter Plasmid; […]) integrated with an oligonucleotide having five tandem copies of NF-κ B binding sequences([…]) on a upstream region of firefly luciferase gene(Luc) according to the QIAGEN's protocol, and the cells were incubated for 6 to 24 hours. After addition of TNF-α (40 ng/ml) in the presence or absence of a test compound, the cells were incubated for 4 hours, and intracellular luciferase activity was measured by using PicaGene LT (TOYO INK MFG Co., Ltd.) and a chemical luminescence measurement apparatus ([…]luor Plus; TECAN). The inhibitory ratio was measured as a ratio relative to the value of the luciferase activity in the absence of the test compound.

SMILES | Inhibitory rate against NF-κB activation (%) (Drug concentration at 10 μg/mL) | inhibition at 1 µg/mL (Drug concentration at 1 μg/mL) | inhibition at 10 µg/mL (Drug concentration at 10 μg/mL) | Inhibitory rate against NF-κB activation (%) (Drug concentration at 1 μg/mL)
O=C(Nc1cc(C(F)(F)F)cc(C(F)(F)F)c1)c1cccc(O)c1O [compound 57] | 91.9% | – | – | –
Cc1cccc(C(=O)Nc2cc(C(F)(F)F)cc(C(F)(F)F)c2)c1O [compound 58, N-[3,5-bis(trifluoromethyl)phenyl]-2-hydroxy-3-methylbenzamide] | – | 88.2% | 95% | –
COc1cccc(C(=O)Nc2cc(C(F)(F)F)cc(C(F)(F)F)c2)c1O [compound 59] | 94.7% | – | – | 41.9%
CC(C)(C)CC(C)(C)c1ccc(O)c(C(=O)Nc2cc(C(F)(F)F)cc(C(F)(F)F)c2)c1 [compound 60] | 99.1% | – | – | 94.0%
O=C(Nc1cc(C(F)(F)F)cc(C(F)(F)F)c1)c1c(O)c(Cl)cc(Cl)c1Cl [compound 61] | 97.2% | – | – | 95.1%
CC(C)(C)c1cc(C(=O)Nc2cc(C(F)(F)F)cc(C(F)(F)F)c2)c(O)c(C(C)(C)C)c1 [compound 62] | 86.9% | – | – | 37.0%
O=C(Nc1cc(C(F)(F)F)cc(C(F)(F)F)c1)c1cccc(Cl)c1O [compound 64] | 94.1% | – | – | 84.9%
COc1ccc(C(=O)Nc2cc(C(F)(F)F)cc(C(F)(F)F)c2)c(O)c1 [compound 65] | 89.8% | – | – | 83.3%
O=C(Nc1cc(C(F)(F)F)cc(C(F)(F)F)c1)c1cc2ccccc2cc1O [compound 72] | 95.0% | – | – | 94.6%
O=C(Nc1cc(C(F)(F)F)cc(C(F)(F)F)c1)c1scc(Br)c1O [compound 74, 4-Bromo-3-hydroxy-N-[3,5-bis(trifluoromethyl)phenyl]thiophene-2-carboxamide] | – | 64% | 97.5% | –
O=C(Nc1cc(C(F)(F)F)cc(C(F)(F)F)c1)c1nc2ccccc2nc1O [compound 80] | 73.0% | – | – | 46.3%
O=C(Nc1cc(C(F)(F)F)ccc1C(F)(F)F)c1cc(Cl)ccc1O [compound 81, N-[2,5-bis(trifluoromethyl)phenyl]-5-chloro-2-hydroxybenzamide] | – | 95% | 96.3% | –
CC(=O)Oc1ccc(Cl)cc1C(=O)Nc1cc(C(F)(F)F)ccc1C(F)(F)F [compound 82] | 96.8% | – | – | 94.0%
O=C(Nc1cc(C(F)(F)F)ccc1C(F)(F)F)c1cc(Br)ccc1O [compound 83] | 98.3% | – | – | 95.7%
Cc1ccc(O)c(C(=O)Nc2cc(C(F)(F)F)ccc2C(F)(F)F)c1 [compound 84] | 96.6% | – | – | 92.6%
O=C(Nc1cc(F)cc(C(F)(F)F)c1)c1cc(Cl)ccc1O [compound 85] | 98.9% | – | – | 94.7%
O=C(Nc1cc(Br)cc(C(F)(F)F)c1)c1cc(Br)ccc1O [compound 86] | 98.7% | – | – | 96.7%
O=C(Nc1cc(C(F)(F)F)ccc1F)c1cc(Cl)ccc1O [compound 87] | 95.9% | – | – | 93.1%
O=C(Nc1cc(C(F)(F)F)ccc1Cl)c1cc(Cl)ccc1O [compound 88, 5-chloro-N-[2-chloro-5-(trifluoromethyl)phenyl]-2-hydroxybenzamide] | – | 94.8% | 97.1% | –
CC(=O)Oc1ccc(Cl)cc1C(=O)Nc1cc(C(F)(F)F)ccc1Cl [compound 89] | 97.4% | – | – | 96.7%
O=C(Nc1cc(C(F)(F)F)ccc1Cl)c1cc(Br)ccc1O [compound 90] | 94.1% | – | – | 88.9%
O=C(Nc1cc(C(F)(F)F)ccc1[N+](=O)[O-])c1cc(Cl)ccc1O [compound 91] | 96.7% | – | – | 86.3%
Cc1ccc(C(F)(F)F)cc1NC(=O)c1cc(Cl)ccc1O [compound 92] | 97.9% | – | – | 93.8%
COc1cc(NC(=O)c2cc(Br)ccc2O)cc(C(F)(F)F)c1 [compound 93] | 97.2% | – | – | 84.5%
COc1ccc(C(F)(F)F)cc1NC(=O)c1cc(Br)ccc1O [compound 94] | 93.4% | – | – | 76.6%

SMILES | Inhibitory rate against NF-κB activation (%) (Drug concentration at 10 μg/mL) | inhibition at 1 µg/mL (Drug concentration at 1 μg/mL) | inhibition at 10 µg/mL (Drug concentration at 10 μg/mL) | Inhibitory rate against NF-κB activation (%) (Drug concentration at 1 μg/mL)
COc1ccc(C(F)(F)F)cc1NC(=O)c1cc(Cl)ccc1O [compound 95] | 98.5% | – | – | 91.8%
CSc1ccc(C(F)(F)F)cc1NC(=O)c1cc(Cl)ccc1O [compound 96] | 99.1% | – | – | 94.6%
O=C(Nc1cc(C(F)(F)F)ccc1N1CCCC1)c1cc(Br)ccc1O [compound 97] | 97.8% | – | – | 95.8%
O=C(Nc1cc(C(F)(F)F)ccc1Cl)c1cc([N+](=O)[O-])ccc1O [compound 99] | 98.0% | – | – | 54.3%
Cc1ccc(O)c(C(=O)Nc2cc(C(F)(F)F)ccc2Cl)c1 [compound 100] | 95.1% | – | – | 85.6%
Cc1ccc(O)c(C(=O)Nc2cc(C(F)(F)F)ccc2C)c1 [compound 102] | 98.3% | – | – | 89.3%
O=C(Nc1cc(Br)cc(C(F)(F)F)c1)c1cc(Cl)ccc1O [compound 104] | 99.2% | – | – | 97.2%
COc1cc(NC(=O)c2cc(Cl)ccc2O)cc(C(F)(F)F)c1 [compound 105] | 97.5% | – | – | 94.6%
O=C(Nc1cc(C(F)(F)F)ccc1N1CCOCC1)c1cc(Cl)ccc1O [compound 106] | 92.1% | – | – | 92.3%
O=C(Nc1cc(C(F)(F)F)ccc1Br)c1cc(Cl)ccc1O [compound 107] | 96.2% | – | – | 94.9%
COC(=O)c1cc(NC(=O)c2cc(Cl)ccc2O)cc(C(F)(F)F)c1 [compound 108, 5-chloro-2-hydroxy-N-[3-methoxycarbonyl-5-(trifluoromethyl)phenyl]benzamide] | – | 41.5% | 88.4% | –
O=C(Nc1cc(C(F)(F)F)ccc1Oc1ccc2ccccc2c1)c1cc(Cl)ccc1O [compound 110] | 98.7% | – | – | 96.5%
O=C(Nc1cc(C(F)(F)F)ccc1Oc1ccc(Cl)cc1Cl)c1cc(Cl)ccc1O [compound 111] | 99.7% | – | – | 96.5%
O=C(Nc1cc(C(F)(F)F)ccc1N1CCC(C(F)(F)F)CC1)c1cc(Cl)ccc1O [compound 112] | 95.7% | – | – | 96.5%
O=C(Nc1cc(C(F)(F)F)ccc1OCC(F)(F)F)c1cc(Cl)ccc1O [compound 113] | 96.2% | – | – | 90.5%
Cc1cc(Oc2ccc(C(F)(F)F)cc2NC(=O)c2cc(Cl)ccc2O)cc(C)c1Cl [compound 115] | 98.4% | – | – | 90.7%
O=C(Nc1cc(C(F)(F)F)ccc1N1CCCCC1)c1cc(Cl)ccc1O [compound 116] | 97.3% | – | – | 90.0%
Cc1ccc(Oc2ccc(C(F)(F)F)cc2NC(=O)c2cc(Cl)ccc2O)cc1 [compound 117] | 92.6% | – | – | 92.8%
O=C(Nc1cc(C(F)(F)F)ccc1Oc1ccc(Cl)cc1)c1cc(Cl)ccc1O [compound 118] | 99.5% | – | – | 95.0%
O=C(Nc1cc(C(F)(F)F)ccc1Cl)c1cc(Cl)cnc1O [compound 119] | 86.9% | – | – | 85.4%
CC(=O)Oc1ccccc1C(=O)Nc1cc(Cl)cc(Cl)c1 [compound 121] | 95.5% | – | – | 92.9%
O=C(Nc1cc(F)cc(F)c1)c1cc(Br)ccc1O [compound 123] | 96.8% | – | – | 91.8%
O=C(Nc1cc(Cl)cc(Cl)c1)c1cc(Br)cc(Br)c1O [compound 128] | 95.1% | – | – | 91.4%
O=C(Nc1cc(Cl)cc(Cl)c1)c1ccc(Cl)cc1O [compound 129] | 71.8% | – | – | –
O=C(Nc1cc(Cl)cc(Cl)c1)c1cc([N+](=O)[O-])ccc1O [compound 130] | 70.6% | – | – | –
